# Assay results taken from US9603852B2, “Treatment of obesity and pulmonary arterial hypertension” (ALBERT EINSTEIN COLLEGE OF MEDICINE, INC., priority 2013, dated 2017).
# Key:
# C57BL6/J mice [1] = assay: Glucose tolerance test in HFD-fed mice; format: in vivo; settings: mice on HFD, 0.2 mM in drinking water for 67 days; glucose 2 g/kg i.p. after 12 h fast
# Experimental: Glucose intolerance is often associated with obesity and HFD causes glucose intolerance. Mice were fasted for 12 hours. Glucose was injected intraperitoneally (20% glucose in saline, 2 g/kg body weight), and plasma glucose levels were measured at various time points by tail cut.
# Sprague-Dawley rats [2] = assay: Tolerability with twice daily injections in the naive rodent; format: in vivo; settings: 7 days
# Experimental: In the first arm of the project, the tolerability of compounds was assessed with twice daily (b.i.d) injections in the naive rodent. Following one week of acclimatization to the UNM housing environments, rats at this time weighing approximately 200-225 g were randomly assigned to either receive a 50 mg/kg injection b.i.d. of Compound 146 (n=4) or an equivalent weight-based volume of vehicle (Cremophor-NMP) b.i.d. (n=4). Rats received test article or saline for a total of 7 consecutive days. Blood draws were conducted immediately before the 2nd day of injections, before the 4th day, before the 6th day, and at sacrifice. Body weights were obtained at the same times as the blood draws. On the 7th day, blood from both cohorts was collected via cardiac puncture while under anesthesia. Lungs, heart, liver and kidney were collected and snap frozen in liquid nitrogen for post-mortem bioassays.
# C57BL6/J mice [3] = assay: High fat diet induced body weight gain, food and water intake in mice; format: in vivo; settings: WT C57BL6 mice on HFD, 0.2 mM in drinking water
# Experimental: CD and HFD were purchased from Purina LabDiet (Framingham, Mass.), and Research Diets (New Brunswick, N.J.), respectively. PGT global knockout (KO) mice were fed with HFD at 5-6 weeks of age. Simultaneously, WT-CD, WT-HFD, and PGTKO-HFD mice were treated with vehicle (0.4% DMSO+0.4% cremophore) or 0.2 mM Compound 146 from Table 1. To prepare Compound 146 solution, Compound 146 was dissolved in 100% DMSO at a concentration of 50 mM. Two mL of either DMSO or 50 mM Compound 146 were transferred into 500 mL drinking water; 2 mL cremophore were added into the mixture. The mixture was homogenous. Mice were housed individually and fed with CD or HFD, and water (with or without Compound 146) ad libitum. Food and water intakes and body weight were recorded every other day.
# rat PGT = molecular target: T1, rat PGT (Rattus norvegicus, UniProt Q00910); settings: cited from earlier work
# T1 construct: expressed in transfected cells
# Sprague-Dawley rats [4] = assay: Rat monocrotaline (MCT) model of pulmonary arterial hypertension; format: in vivo; settings: for Deaths/Total N: 21 days
# Experimental: Monocrotaline (MCT) (Sigma-Aldrich) was formulated by standardized procedures, by first dissolving in an acidic solution (HCl), diluting with distilled H2O, then raising the pH to physiological levels (7.35-7.45) with NaOH. MCT (60 mg/kg) or a volume-matched saline solution was injected intraperitoneally once at the beginning of the study. Body weights were collected on day 0, 5, 7, 11, 14, 18, and 21.
# MCT and saline-injected rats (Day 1) were equally and randomly assigned to receive either vehicle (Cremophor-NMP), low dose Compound 146 or high dose Compound 146 via subcutaneous injections (Days 1-21). Injections were administered subcutaneously at 12 hour intervals throughout the study (actual range was 10-14 h).
# After 21 days of twice daily subq injections of either vehicle or two concentrations of Compound 146, rats were anesthetized (1.5-2.5% isoflurane; […]), shaved and positioned in dorsal recumbence. Anesthesia was maintained at an appropriate depth, with a target heart rate of ˜350 bpm to ensure minimal cardio-depressant effects during collection of RVSP.
# Upon absent deep pain reflex, a thoracotomy was performed to reveal the right ventricle and a fluid-filled catheter was inserted beyond the right ventricular free wall to permit recording of right ventricular hemodynamics (ADI Instruments). A digital trace of 10-30 seconds was obtained from which to derive right ventricular diastolic, mean, and systolic pressures, along with heart rate and related hemodynamic measures. Blood was then drawn via cardiac puncture and centrifuged to obtain EDTA plasma. Hearts were removed and the right ventricle dissected free from the septal wall. Each piece was weighed and reported as RV/LV+S. Tissues (plasma, heart, and lung) were excised and frozen in liquid nitrogen for later biochemical analysis. Additionally, kidneys and liver were snap frozen and stored for subsequent analysis.
# Animals were examined twice per day (morning and evening) on each day of the study. Examinations focused on (1) identifying dead, weak, or moribund animals, and (2) documenting the onset and progression of any abnormal clinical signs, especially dermal lesions. Animals found dead were necropsied as soon as possible; for those subjects RV/LVS weight ratios were obtained, but no other parameters were collected.
# All data were analyzed by a one-way ANOVA with Newman-Keuls post-hoc multiple comparison test. Probability values less than 0.05 were accepted as significant. Normality of distribution was assumed but for all data sets. All data were analyzed with GraphPad Prism v5.02.
smiles,measurement,setting,value
O=C(NCCOCCOCCNc1nc(Nc2ccc(C(=O)NCc3ccc(F)cc3)cc2)nc(Nc2ccc(O)c(C(=O)O)c2)n1)c1ccccc1 [Compound 146],HFD induced glucose intolerance (glucose tolerance test),C57BL6/J mice [1],improved HFD induced glucose intolerance
same,cutaneous lesion diameter close to injection sites,Sprague-Dawley rats [2]; 2 rats of the 50 mg/kg b.i.d. group that did not gain weight,1.5-2.0 cm
same,body weight growth (tolerability),"Sprague-Dawley rats [2]; naive rats, 50 mg/kg b.i.d. injection in NMP and Cremophor",heterogeneous failure to thrive
same,HFD induced body weight gain,C57BL6/J mice [3],blunted HFD induced weight gain
same,Inh (% of Ctl) 0.01 μM,"rat PGT; 0.01 μM compound, second part of Table 1",28.5 % of Ctl
same,Inh (% of Ctl) 0.05 μM,"rat PGT; 0.05 μM compound, second part of Table 1",59.8 % of Ctl
same,Inh (% of Ctl) 0.1 μM,"rat PGT; 0.1 μM compound, second part of Table 1 (Cpd 130-151)",70.4 % of Ctl
same,"RV pressures, MCT+Vehicle versus MCT+Compound 146 by ANOVA",Sprague-Dawley rats [4]; 15 or 50 mg/kg b.i.d.,not statistically different
same,"RV pulse pressure, MCT+Vehicle versus MCT+Compound 146 by ANOVA",Sprague-Dawley rats [4]; 15 or 50 mg/kg b.i.d.,statistically different
same,Net RV weight increase by MCT,Sprague-Dawley rats [4]; MCT rats,effect blunted
same,Deaths/Total N,"Sprague-Dawley rats [4]; MCT rats, 15 mg/kg b.i.d. s.c.",0/8
same,Deaths/Total N,"Sprague-Dawley rats [4]; MCT rats, 50 mg/kg b.i.d. s.c.",0/8
same,MCT induced increase in total lung weight,"Sprague-Dawley rats [4]; MCT rats, both doses",inhibited
same,RV hypertrophic response,"Sprague-Dawley rats [4]; MCT rats, both doses",significant inhibition
same,"RV/LVS ratio (Fulton Index), mean","Sprague-Dawley rats [4]; MCT rats, high dose 50 mg/kg b.i.d.",0.47
same,right lobe dry weight / increase in structural components of the lung,"Sprague-Dawley rats [4]; MCT rats, lobe dried for 5 days",abrogated this remodeling
same,"RV/LVS ratio (Fulton Index), mean","Sprague-Dawley rats [4]; MCT rats, low dose 15 mg/kg b.i.d.",0.41
same,Deaths/Total N,"Sprague-Dawley rats [4]; Saline-injected rats, 50 mg/kg b.i.d. s.c.",0/5
same,"RV pulse pressure, MCT effect compared to control rats",Sprague-Dawley rats [4]; either dose (15 or 50 mg/kg b.i.d.),MCT induced no significant effect compared to control rats
same,"RV systolic and mean pressures, MCT effect compared to control rats","Sprague-Dawley rats [4]; either dose (15 or 50 mg/kg b.i.d.), ANOVA",MCT induced no significant effect compared to control rats
same,lethalities,Sprague-Dawley rats [4]; groups receiving any dose,no lethalities
same,"RV pressures, MCT-vehicle compared to MCT-Compound 146, restricted analysis","Sprague-Dawley rats [4]; one-tailed unpaired Student's t-test, P=0.046 low dose and 0.002 high dose",significant reduction
